Laboratory results as given in PubChem BioAssay (NCI).
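Cultured in 96-well plates, cells were exposed to test compound for 48 hours across five concentrations. At the TGI there is no net growth.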 Where a SMILES comes first, the peptide text is derived from it. The star is where a group is joined. Boc = CC(C)(C)OC(=O)*; OBn = c1ccc(CO*)cc1

Experiments:
Test in all cases: growth of human tumour cells (NCI), 48 h
MDA-MB-231 breast = tested on: MDA-MB-231 breast
PC-3 prostate = tested on: PC-3 prostate
OVCAR-8 ovarian = tested on: OVCAR-8 ovarian
MCF7 breast = tested on: MCF7 breast
MALME-3M melanoma = tested on: MALME-3M melanoma
SF-539 CNS = tested on: SF-539 CNS
A549 NSCLC = tested on: A549 NSCLC
T-47D breast = tested on: T-47D breast
HCT-116 colon = tested on: HCT-116 colon
SF-268 CNS = tested on: SF-268 CNS

Row | Structure (SMILES) | TGI (MDA-MB-231 breast) [µM] | TGI (PC-3 prostate) [µM] | TGI (OVCAR-8 ovarian) [µM] | TGI (MCF7 breast) [µM] | TGI (MALME-3M melanoma) [µM] | TGI (SF-539 CNS) [µM] | TGI (A549 NSCLC) [µM] | TGI (T-47D breast) [µM] | TGI (HCT-116 colon) [µM] | TGI (SF-268 CNS) [µM]
1 | CCCCCCCCCC(=O)N[C@@H](c1ccco1)[C@@H](O)C(=O)O[C@H]1C[C@@]2(O)[C@@H](OC(=O)c3ccccc3)[C@@H]3[C@]4(OC(C)=O)CO[C@@H]4C[C@H](O)[C@@]3(C)C(=O)[C@H](OC(C)=O)C(=C1C)C2(C)C | 4.47 | > 35.1 | 11 | 1.81 | 12.4 | 0.17 | > 50 | 1.42 | 1.13 | 24.5
2 | Cc1nc2n(c1/C=C1/C(=O)Nc3ccccc31)CCS2 | > 100 | > 100 | > 100 | > 100 | > 100 | > 100 | > 100 | > 100 | > 100 | > 100
3 | Cc1ccc(S(=O)(=O)NC(=O)NC(CCCCN=C(N)N)C(=O)O)cc1 (stereo not given) | > 100 | > 100 | > 100 | > 100 | > 100 | > 100 | > 100 | > 100 | > 100 | > 100
4 | O=C1CC(C(CC(=O)c2ccccc2)c2ccccc2)C(=O)c2ccccc2N1 (stereo not given) | > 100 | > 100 | > 100 | 80.1 | > 100 | > 100 | > 100 | 64.4 | > 100 | > 100
5 | CC(C)=CCOc1cc(NC(=S)c2ccsc2C)ccc1Cl | 83.4 | > 100 | > 100 | > 100 | > 100 | > 100 | > 100 | > 100 | > 100 | > 100
6 | CCOC(=O)NNC(=O)NCc1ccccc1CNC(=O)NNC(=O)OCC | > 100 | > 100 | > 100 | > 100 | > 100 | > 100 | > 100 | > 100 | > 100 | > 100
7 | Cn1c([C@H](C#N)C(=O)c2cc(O)ccc2[N+](=O)[O-])nc2ccccc21 | > 100 | > 100 | > 100 | > 100 | > 100 | > 100 | > 100 | > 100 | > 100 | > 100
8 | Nc1nccc(NCC2(CO)CCC2)n1 | > 100 | > 100 | > 100 | > 100 | > 100 | > 100 | > 100 | > 100 | > 100 | > 100
9 | Cc1cccc2nc3c(=O)[nH]c(=O)nc-3n(C)c12 | > 100 | > 100 | > 100 | > 100 | 38.5 | > 100 | > 100 | > 100 | > 100 | > 100
10 | C[N+](C)(C)C=Nc1cccc2c1CCCC2 | > 100 | > 100 | > 100 | > 100 | > 100 | > 100 | > 100 | > 100 | > 100 | > 100
11 | CC(C)(O)C1CC[C@]2(C)[C@H]3CC[C@@H]4[C@@]5(C)CCCC(C)(C)[C@@H]5CC[C@@]4(C)[C@]3(C)CC[C@@H]12 (stereo not given in full) | > 100 | > 100 | > 100 | > 100 | > 100 | > 100 | > 100 | > 100 | > 100 | > 100
12 | O=S(=O)(O)c1cccc2cccc(N=Nc3c(O)ccc4ccccc34)c12 | > 100 | > 100 | > 100 | > 100 | > 100 | > 100 | > 100 | > 100 | > 100 | > 100
13 | Cc1ccc(-c2cc(O)c3nc4ccccc4n3c2)cc1 | > 100 | > 100 | > 100 | > 100 | > 100 | > 100 | > 100 | > 100 | > 100 | > 100
14 | CC(=O)OC12c3ccccc3C(c3ccccc31)C1C(=O)N(c3ccccn3)C(=O)C12 (stereo not given) | > 100 | > 100 | > 100 | > 100 | > 100 | > 100 | > 100 | > 100 | > 100 | > 100
15 | Cc1ccc(S(=O)(=O)[C@@H](Cl)[C@H]2N=C(Cl)NN=C2c2ccccc2)cc1 | 46.6 | 39.5 | 44.6 | 89.6 | 41.7 | 61.1 | > 100 | > 100 | > 100 | 38.8
16 | Cc1nnc2n(c1=O)CCN2C | > 100 | > 100 | > 100 | > 100 | > 100 | > 100 | > 100 | > 100 | > 100 | > 100
17 | NC(Cc1c[nH]c2cc([N+](=O)[O-])ccc12)C(=O)O (stereo not given) | > 100 | > 100 | > 100 | > 100 | > 100 | > 100 | > 100 | > 100 | > 100 | > 100
18 | CCOc1ccc(N=NC2C(=O)N(C(=O)CC(=O)Nc3ccccc3)N=C2C)cc1 (stereo not given) | > 100 | > 100 | > 100 | > 100 | > 100 | > 100 | > 100 | > 100 | > 100 | > 100
19 | CS[C@]12[C@@H]3C(=O)N(C)C(=O)[C@@H]3[C@](C)(C(=O)N1C)C(=O)N2c1ccccc1 | > 100 | > 100 | > 100 | > 100 | > 100 | > 100 | > 100 | > 100 | > 100 | > 100
20 | Oc1ccccc1C1C=C(c2ccccc2)NC(N2CCCCC2)=C1c1nc2ccccc2[nH]1 (stereo not given) | 24.4 | 24.5 | 30.9 | 24.9 | 29.6 | 29.7 | 29.2 | 40.4 | 24.6 | 27.5
21 | CC(C)CC(NC(=O)OC(C)(C)C)C(=O)NC(CC(=O)OCc1ccccc1)C(=O)OCc1ccccc1 (stereo not drawn) (Boc-Leu-Asp(OBn)-OBn; configuration not given here) | > 100 | 84.8 | > 100 | > 100 | > 100 | 96.7 | > 100 | > 100 | > 100 | > 100
22 | COc1ccc(C2OCCN2C)cc1 (stereo not given) | > 100 | > 100 | > 100 | > 100 | > 100 | > 100 | > 100 | > 100 | > 100 | > 100
23 | COCC1OC(S(=O)(=O)c2ccccc2)C(O)C(OC)C1OC (stereo not given) | > 100 | > 100 | > 100 | > 100 | > 100 | > 100 | > 100 | > 100 | > 100 | > 100
24 | COc1ccc(C(Cc2ccccc2)C2NC(=S)NC2=O)cc1 (stereo not given) | > 25 | > 25 | > 25 | > 25 | > 25 | > 25 | > 25 | > 25 | > 25 | > 25
25 | COC(=O)c1c(CC(Cc2ccc3c(c2)CCCC3)C(=O)OC)ccc2c1CCCC2 (stereo not given) | > 100 | > 100 | > 100 | > 100 | > 100 | > 100 | > 100 | > 100 | > 100 | > 100
26 | CC(C)(C)CC(C)(C)NC(=S)NO | > 100 | > 100 | > 100 | > 100 | > 100 | > 100 | > 100 | > 100 | > 100 | > 100
27 | O=CC(O)C(O)C(O)C1CNC(=S)O1 (stereo not given) | > 100 | > 100 | > 100 | > 100 | > 100 | > 100 | > 100 | > 100 | > 100 | > 100
28 | Nc1ccc(Nc2cc(=O)[nH]c(=O)[nH]2)cc1 | > 100 | > 100 | > 100 | > 100 | > 100 | > 100 | > 100 | > 100 | > 100 | > 100
29 | O=Nn1c2ccccc2c2cc([N+](=O)[O-])ccc21 | 39.9 | 35 | 31.6 | 58 | 38.5 | 37.2 | 73.2 | > 100 | 32.5 | 32.7
